From patent US20100227853A1, “INHIBITORS OF CYCLIC AMP PHOSPHODIESTERASES” (Trustees of Boston College, priority 2008, published 2010)

How the values were obtained:
PDE4B3 = biological target: T1, PDE4B3 (Mus musculus, UniProt Q8VBU5); assay: 5FOA growth assay in fission yeast strain expressing PDE4B3; type: cell-based, Murine; settings: high throughput 5FOA growth screen
T1 construct: targets used in the assays are full-length proteins (as opposed to simply the catalytic domain); expressed in transfected cells; host or cells: Schizosaccharomyces pombe, PDE gene integrated in place of cgs2
T1 sequence (Q8VBU5 1-721): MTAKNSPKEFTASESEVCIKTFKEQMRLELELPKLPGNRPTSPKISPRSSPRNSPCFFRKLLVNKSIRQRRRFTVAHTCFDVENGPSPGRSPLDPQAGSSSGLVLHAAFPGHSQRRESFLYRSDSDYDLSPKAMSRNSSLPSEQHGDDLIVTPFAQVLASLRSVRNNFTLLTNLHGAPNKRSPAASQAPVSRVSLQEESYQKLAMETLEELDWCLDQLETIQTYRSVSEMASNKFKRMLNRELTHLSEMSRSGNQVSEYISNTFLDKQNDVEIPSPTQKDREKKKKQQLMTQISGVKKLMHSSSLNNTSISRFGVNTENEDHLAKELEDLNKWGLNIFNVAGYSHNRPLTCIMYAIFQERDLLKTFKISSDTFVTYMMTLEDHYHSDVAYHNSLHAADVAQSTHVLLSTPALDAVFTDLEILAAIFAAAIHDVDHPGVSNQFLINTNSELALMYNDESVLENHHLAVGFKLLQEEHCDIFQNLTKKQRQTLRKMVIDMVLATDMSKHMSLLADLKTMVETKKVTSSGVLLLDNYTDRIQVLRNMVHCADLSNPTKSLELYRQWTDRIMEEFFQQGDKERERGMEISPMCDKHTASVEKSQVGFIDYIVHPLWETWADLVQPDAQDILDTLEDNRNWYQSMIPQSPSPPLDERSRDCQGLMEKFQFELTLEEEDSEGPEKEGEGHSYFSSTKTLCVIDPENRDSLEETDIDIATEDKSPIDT
Method: (§1) High throughput drug screens were carried out at the Broad Institute's Chemical Biology Program screening facility (Broad Institute, Cambridge, Mass.). Depending upon the strain, cultures were pregrown to exponential phase in EMM complete medium containing from 0.5 to 2.5 mM cAMP to repress fbp1-ura4 transcription. […] Starting cell concentrations ranged from 0.5×10^5 to 4×10^5 cells/ml depending on the screening strain. […] Other positive control dishes contained 5 mM cAMP in the 5FOA medium. Cultures were grown for 48 hours at 30° C., sealed in an airtight container with moist paper towels to prevent evaporation. Optical densities (OD600) of cultures were measured using a microplate reader. Bioinformatic analysis of the results to determine composite Z scores was performed as previously described^30, 31.
(§2) To determine whether the 5FOA growth phenotype could be exploited for high throughput drug screening, strains expressing PDE2A, PDE4A, PDE4B, or PDE8A were pre-grown in EMM medium containing cAMP and then transferred to 5FOA medium in 384 well microtiter plates in the presence or absence of cAMP. OD600 measurements were taken after 48 hours incubation at 30° C.
(§3) Cells were pregrown in EMM medium [MP Biomedicals (Solon, Ohio), 3% glucose, filter-sterilized to avoid carmelization, which would introduce variability into the optical density of the medium] containing from 0 mM to 2.5 mM cAMP (or either 0.5 mM or 1.0 mM cGMP). This was to repress expression of the fbp1-ura4 reporter prior to exposure of cells to 5FOA medium. Cells were grown at 30° C. to exponential phase (approximately 10^7 cells/ml). […] Starting cell concentrations ranged from 0.5×10^5 to 4×10^5 cells/ml depending on the screening strain. […] Other positive control dishes contained 5 mM cAMP in the 5FOA medium for PDEs that lack appropriate control compounds. Cultures were grown for 48 hours at 30° C., sealed in an airtight container with moist paper towels to prevent evaporation. Optical densities (OD600) of cultures were measured using a microplate reader. Bioinformatic analysis of the results to determine composite Z scores was performed as previously described (1, 3).

PDE7A = PDE7A (Homo sapiens, UniProt Q13946); assay: 5FOA growth assay in fission yeast strain expressing PDE7A; type: cell-based; set-up: targets used in the assays are full-length proteins (as opposed to simply the catalytic domain); expressed in transfected cells; host or cells: Schizosaccharomyces pombe, PDE gene integrated in place of cgs2; settings: high throughput 5FOA growth screen
Method: PDE inhibition allows growth in 5FOA medium as measured by optical density after 48 hours incubation at 30° C. Compound BC12 and six structural analogs were tested for growth stimulation.
Cells were pregrown in EMM medium [MP Biomedicals (Solon, Ohio), 3% glucose, filter-sterilized to avoid carmelization, which would introduce variability into the optical density of the medium] containing from 0 mM to 2.5 mM cAMP (or either 0.5 mM or 1.0 mM cGMP). This was to repress expression of the fbp1-ura4 reporter prior to exposure of cells to 5FOA medium. Cells were grown at 30° C. to exponential phase (approximately 10^7 cells/ml). Cells were collected by centrifugation and resuspended in 5FOA medium, and 25 μl were transferred to 384-well microtiter dishes (untreated, with flat clear bottoms) that had been pre-filled with 25 μl 5FOA medium and pre-pinned with 100 nl of compounds (stock solutions were generally 10 mM). Starting cell concentrations ranged from 0.5×10^5 to 4×10^5 cells/ml depending on the screening strain. […] Other positive control dishes contained 5 mM cAMP in the 5FOA medium for PDEs that lack appropriate control compounds. Cultures were grown for 48 hours at 30° C., sealed in an airtight container with moist paper towels to prevent evaporation. Optical densities (OD600) of cultures were measured using a microplate reader. Bioinformatic analysis of the results to determine composite Z scores was performed as previously described (1, 3).

PDE4A1 = biological target: T2, PDE4A1 (Mus musculus, UniProt O89084); assay: 5FOA growth assay (high throughput screen, ED50) in fission yeast strain expressing PDE4A1; type: cell-based; settings: high throughput 5FOA growth screen; greater than 8.53 = statistically-significant inhibitor
T2 construct: targets used in the assays are full-length proteins (as opposed to simply the catalytic domain); expressed in transfected cells; host or cells: Schizosaccharomyces pombe, PDE gene integrated in place of cgs2
T2 sequence (O89084 1-610 isoform O89084-2): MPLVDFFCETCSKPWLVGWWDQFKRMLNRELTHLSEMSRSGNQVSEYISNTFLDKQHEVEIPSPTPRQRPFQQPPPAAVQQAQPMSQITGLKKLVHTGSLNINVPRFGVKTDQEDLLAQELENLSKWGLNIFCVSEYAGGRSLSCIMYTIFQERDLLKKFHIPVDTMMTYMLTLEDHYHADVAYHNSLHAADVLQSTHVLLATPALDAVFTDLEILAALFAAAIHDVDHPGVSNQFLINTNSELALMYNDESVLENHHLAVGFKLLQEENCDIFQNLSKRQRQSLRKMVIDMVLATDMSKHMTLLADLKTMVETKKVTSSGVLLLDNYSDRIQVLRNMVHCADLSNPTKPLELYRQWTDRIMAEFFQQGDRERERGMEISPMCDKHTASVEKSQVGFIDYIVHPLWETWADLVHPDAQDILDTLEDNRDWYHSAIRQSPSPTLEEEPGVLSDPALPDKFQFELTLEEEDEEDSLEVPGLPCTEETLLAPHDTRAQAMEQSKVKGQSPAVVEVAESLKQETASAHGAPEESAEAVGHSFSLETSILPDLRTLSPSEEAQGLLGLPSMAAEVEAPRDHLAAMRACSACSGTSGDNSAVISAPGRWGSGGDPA
Method: as §1, §2, §3

PDE7A, sequence (Q13946 whole entry, the tested form may be a part): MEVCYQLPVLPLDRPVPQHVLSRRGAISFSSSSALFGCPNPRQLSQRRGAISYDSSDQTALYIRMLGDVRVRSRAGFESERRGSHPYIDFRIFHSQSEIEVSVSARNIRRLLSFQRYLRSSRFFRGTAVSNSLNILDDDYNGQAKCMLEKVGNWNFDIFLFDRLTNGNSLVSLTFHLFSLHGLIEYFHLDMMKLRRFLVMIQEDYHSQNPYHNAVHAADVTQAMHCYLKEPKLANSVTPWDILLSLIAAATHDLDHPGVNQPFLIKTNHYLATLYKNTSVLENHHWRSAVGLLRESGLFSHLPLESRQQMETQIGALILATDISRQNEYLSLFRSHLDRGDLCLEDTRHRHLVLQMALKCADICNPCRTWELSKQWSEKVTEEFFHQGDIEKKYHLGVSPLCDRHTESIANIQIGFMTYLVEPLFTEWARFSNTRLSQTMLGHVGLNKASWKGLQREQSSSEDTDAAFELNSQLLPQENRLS

Compound	Composite Z score, PDE4B3 (PDE4B3)	Composite Z score, PDE7A (PDE7A)	Composite Z score, PDE4A1 (PDE4A1)
c1nc(NC2CCCC2)c2c3c(sc2n1)CCC3 [2084 E21]	0.593	18.891	29.047
Cc1nc(N2CC(C)OC(C)C2)c2c3c(sc2n1)CCC3 (stereo not drawn) [Compound 1421B05]	5.4669		2.1932
CCC(CO)Nc1nc(C)nc2sc3c(c12)CCC3 (stereo not drawn) [Compound 1422J17]	−0.936		0.1866
COc1ccc(CCNc2ncnc3sc(C)c(C)c23)cc1OC [Compound 1423F01]	4.2065		0.9043
c1cncc(CNc2ncnc3sc4c(c23)CCCC4)c1 [Compound 1423I22]	0.501		1.7161
Cc1nc(N2CCC(C)CC2)c2c(C)c(C(=O)N3CCOCC3)sc2n1 [Compound 1424A12]	−2.898		2.2036
Cc1nc(N2CCOCC2)c2c(C)c(C(=O)Nc3cccc(Cl)c3C)sc2n1 [Compound 1424K08]	21.717		3.4896
CC1CCc2c(sc3ncnc(NCCN4CCOCC4)c23)C1 (stereo not drawn) [Compound 1425N16]	−1.074		0.4867
Cc1sc2ncnc(NCc3ccc4c(c3)OCO4)c2c1C [Compound 1426A15]	0.9419		1.5745
Cc1sc2ncnc(NC3CCN(Cc4ccccc4)CC3)c2c1C [Compound 1426C09]	−0.516		−0.147
Cc1sc2ncnc(NCCc3ccc4c(c3)OCCO4)c2c1C [Compound 1426G17]	25.393		10.127
Cc1nc(NCc2ccco2)c2c3c(sc2n1)CCC3 [Compound 1426I13]	−0.071		−0.033
CCC(CO)Nc1nc(C)nc2sc3c(c12)CCCC3 (stereo not drawn) [Compound 1426O11]	0.0693		0.4682
C=CCNc1ncnc2sc3c(c12)CCCC3 [Compound 1435C20]	31.009		8.4736
CCOC(=O)CSc1nc(NC)c2c3c(sc2n1)CCCC3 [Compound 1439B09]	1.2391		0.5702
CC1CCc2c(sc3nc(SCC(N)=O)nc(NCc4ccccc4)c23)C1 (stereo not drawn) [Compound 1439G17]	47.874		6.7542
c1ccc(CN2CCN(c3ncnc4sc5c(c34)CCCCC5)CC2)cc1 [Compound 2074A07]	0.8366	0.7527	−0.348
Cc1sc2ncnc(N3CCN(c4cccc(C(F)(F)F)c4)CC3)c2c1C [Compound 2074G03]	−1.188	−1.925	11.67
c1ccc(CNc2ncnc3sc4c(c23)CCCC4)cc1 [Compound 2077J03]	1.9013	1.1908	1.1575
CC(C)CNc1ncnc2sc3c(c12)CCCC3 [Compound 2077P12]	9.3964	17.695	1.6797
Cc1sc2ncnc(NCc3cccnc3)c2c1C [Compound 2081F17]	1.6993	0.439	0.1374
O=C(c1ccco1)N1CCN(c2ncnc3sc4c(c23)CCCC4)CC1 [Compound 2083J20]	5.6256	0.8496	18.511
CCN(CC)CCCNc1ncnc2sc3c(c12)CC(C)CC3 (stereo not drawn) [Compound 2083L15]	−0.877	−1.18	1.9931
Cc1sc2ncnc(N3CCN(CCO)CC3)c2c1C [Compound 2084A21]	0.6718	0.0079	0.1942
O=C(Nc1ncnc2sc3c(c12)CCCCC3)c1ccco1 [Compound 2084G06]	0.884	−1.808	6.4203
O=C(Nc1ncnc2sc3c(c12)CCC3)c1cccs1 [Compound 2084I06]	0.9421	12.419	7.8022
Cc1sc2ncnc(NCC(=O)O)c2c1C [Compound 2085F18]	0.8136	−1.774	0.3168
Cc1sc2ncnc(N(C)C)c2c1C [Compound 2085O15]	−1.519	−0.627	1.0991
